The structures appear in SMILES notation.

From ChEMBL document CHEMBL5303573, “Mapping human microbiome drug metabolism by gut bacteria and their genes” (Nature, 2019) come the findings set out here.

One data set can be described thus: The drug is tested on Clostridium spiroforme strain: DSM1552 for biotransformation. The drug concentrations were measured before and after a 12-h incubation by liquid-chromatography-coupled mass spectrometry (LC–MS). The conditions noted are these: thomasclavelia spiroformis, 2 µM.
For `CN(C)CCC=C1c2ccccc2C=Cc2ccccc21` [CYCLOBENZAPRINE], the “Bacterial Biotransformation” value is listed as “Compound NOT metabolized”.
Same read-out and setting: the same measure for `Clc1cccc(Cl)c1N=C1NCCN1` [CLONIDINE]: “Compound NOT metabolized”; for `CN/C(=N/CCSCc1nc[nH]c1C)NC#N` [CIMETIDINE]: “Compound NOT metabolized”.
Take `COC(=O)[C@H](c1ccccc1Cl)N1CCc2sccc2C1.O=S(=O)(O)O` [CLOPIDOGREL BISULFATE]: the “Bacterial Biotransformation” value was “Compound NOT metabolized”.
The same measure, in the same setting: the same measure for `O=P1(N(CCCl)CCCl)NCCCO1` (configuration not stated) [CYCLOPHOSPHAMIDE ANHYDROUS]: “Compound NOT metabolized”.
For `CC(C)NCC(O)COc1ccc(CC(N)=O)cc1` (configuration not stated) [ATENOLOL], the “Bacterial Biotransformation” value is given as “Compound NOT metabolized”.
The same measure, in the same setting: the same measure for `c1ccc([C@H]2CN3CCSC3=N2)cc1` [LEVAMISOLE]: “Compound NOT metabolized”.

A further data set in a line: The drug is tested on Clostridium sp. strain: fecal isolate for biotransformation. The drug concentrations were measured before and after a 12-h incubation by liquid-chromatography-coupled mass spectrometry (LC–MS). The conditions noted are these: 2 µM.
For the molecule `CN(C)CCC=C1c2ccccc2C=Cc2ccccc21` [CYCLOBENZAPRINE], the “Bacterial Biotransformation” value is listed as “Compound metabolized”.
Same read-out and setting: the same measure for `Clc1cccc(Cl)c1N=C1NCCN1` [CLONIDINE]: “Compound NOT metabolized”; for `COC(=O)[C@H](c1ccccc1Cl)N1CCc2sccc2C1.O=S(=O)(O)O` [CLOPIDOGREL BISULFATE]: “Compound metabolized”.
With `CC(C)(Oc1ccc(CCNC(=O)c2ccc(Cl)cc2)cc1)C(=O)O` [BEZAFIBRATE], the “Bacterial Biotransformation” value is listed as “Compound metabolized”.
Still for that read-out and setting: the same measure for `CC(Oc1c(Cl)cccc1Cl)C1=NCCN1` (configuration not stated) [LOFEXIDINE]: “Compound metabolized”; for `O=P1(N(CCCl)CCCl)NCCCO1` (configuration not stated) [CYCLOPHOSPHAMIDE ANHYDROUS]: “Compound NOT metabolized”; for `CC(C)NCC(O)COc1ccc(CC(N)=O)cc1` (configuration not stated) [ATENOLOL]: “Compound NOT metabolized”.
For the molecule `c1ccc([C@H]2CN3CCSC3=N2)cc1` [LEVAMISOLE], the “Bacterial Biotransformation” value was “Compound metabolized”.

For another data set the following is noted: bacteroides fragilis, 12 h, 2 µM.
Description: The drug is tested on Bacteroides fragilis strain: DS-208 for biotransformation. The drug concentrations were measured before and after a 12-h incubation by liquid-chromatography-coupled mass spectrometry (LC–MS)
Consider `CN(C)CCC=C1c2ccccc2C=Cc2ccccc21` [CYCLOBENZAPRINE], for which the “Bacterial Biotransformation” value is “Compound NOT metabolized”.
Turning to `Clc1cccc(Cl)c1N=C1NCCN1` [CLONIDINE], the “Bacterial Biotransformation” value is “Compound metabolized”.
As to `COC(=O)[C@H](c1ccccc1Cl)N1CCc2sccc2C1.O=S(=O)(O)O` [CLOPIDOGREL BISULFATE], the “Bacterial Biotransformation” value is “Compound metabolized”.
Turning to `CC(C)(Oc1ccc(CCNC(=O)c2ccc(Cl)cc2)cc1)C(=O)O` [BEZAFIBRATE], the “Bacterial Biotransformation” value is “Compound metabolized”.
On to `CC(Oc1c(Cl)cccc1Cl)C1=NCCN1` (configuration not stated) [LOFEXIDINE], for which the “Bacterial Biotransformation” value was “Compound NOT metabolized”.
With `O=P1(N(CCCl)CCCl)NCCCO1` (configuration not stated) [CYCLOPHOSPHAMIDE ANHYDROUS], the “Bacterial Biotransformation” value is listed as “Compound NOT metabolized”.
Still for that read-out and setting: the same measure for `c1ccc([C@H]2CN3CCSC3=N2)cc1` [LEVAMISOLE]: “Compound metabolized”.

The conditions of a further data set: enterocloster bolteae, 12 h, 2 µM.
Description: The drug is tested on Clostridium bolteae strain: ATCCBAA-613 for biotransformation. The drug concentrations were measured before and after a 12-h incubation by liquid-chromatography-coupled mass spectrometry (LC–MS)
Consider `CN(C)CCC=C1c2ccccc2C=Cc2ccccc21` [CYCLOBENZAPRINE], for which the “Bacterial Biotransformation” value was “Compound NOT metabolized”.
For the molecule `Clc1cccc(Cl)c1N=C1NCCN1` [CLONIDINE], the “Bacterial Biotransformation” value was “Compound NOT metabolized”.
With `CN/C(=N/CCSCc1nc[nH]c1C)NC#N` [CIMETIDINE], the “Bacterial Biotransformation” value is reported as “Compound NOT metabolized”.
The same measure, in the same setting: the same measure for `COC(=O)[C@H](c1ccccc1Cl)N1CCc2sccc2C1.O=S(=O)(O)O` [CLOPIDOGREL BISULFATE]: “Compound NOT metabolized”; for `CC(C)(Oc1ccc(CCNC(=O)c2ccc(Cl)cc2)cc1)C(=O)O` [BEZAFIBRATE]: “Compound metabolized”; for `CC(Oc1c(Cl)cccc1Cl)C1=NCCN1` (configuration not stated) [LOFEXIDINE]: “Compound metabolized”.
Take `CC(C)NCC(O)COc1ccc(CC(N)=O)cc1` (configuration not stated) [ATENOLOL]: the “Bacterial Biotransformation” value is recorded as “Compound NOT metabolized”.
Still for that read-out and setting: the same measure for `c1ccc([C@H]2CN3CCSC3=N2)cc1` [LEVAMISOLE]: “Compound metabolized”.

The nature of the next data set: The drug is tested on Clostridium symbiosum strain: ATCC14940 for biotransformation. The drug concentrations were measured before and after a 12-h incubation by liquid-chromatography-coupled mass spectrometry (LC–MS). The conditions noted are these: 2 µM.
Consider `CN(C)CCC=C1c2ccccc2C=Cc2ccccc21` [CYCLOBENZAPRINE], for which the “Bacterial Biotransformation” value is given as “Compound NOT metabolized”.
On the same count and under the same terms, the same measure for `Clc1cccc(Cl)c1N=C1NCCN1` [CLONIDINE]: “Compound NOT metabolized”; for `CN/C(=N/CCSCc1nc[nH]c1C)NC#N` [CIMETIDINE]: “Compound NOT metabolized”.
In the case of `COC(=O)[C@H](c1ccccc1Cl)N1CCc2sccc2C1.O=S(=O)(O)O` [CLOPIDOGREL BISULFATE], the “Bacterial Biotransformation” value was “Compound NOT metabolized”.
Same read-out and setting: the same measure for `CC(C)(Oc1ccc(CCNC(=O)c2ccc(Cl)cc2)cc1)C(=O)O` [BEZAFIBRATE]: “Compound metabolized”; for `CC(Oc1c(Cl)cccc1Cl)C1=NCCN1` (configuration not stated) [LOFEXIDINE]: “Compound metabolized”.
Consider `O=P1(N(CCCl)CCCl)NCCCO1` (configuration not stated) [CYCLOPHOSPHAMIDE ANHYDROUS], for which the “Bacterial Biotransformation” value is “Compound NOT metabolized”.
Same read-out and setting: the same measure for `CC(C)NCC(O)COc1ccc(CC(N)=O)cc1` (configuration not stated) [ATENOLOL]: “Compound NOT metabolized”; for `c1ccc([C@H]2CN3CCSC3=N2)cc1` [LEVAMISOLE]: “Compound metabolized”.

A further data set in a line: The drug is tested on Eggerthella lenta strain: ATCC25559 for biotransformation. The drug concentrations were measured before and after a 12-h incubation by liquid-chromatography-coupled mass spectrometry (LC–MS). The note with it: 2 µM.
Turning to `CC(C)(Oc1ccc(CCNC(=O)c2ccc(Cl)cc2)cc1)C(=O)O` [BEZAFIBRATE], the “Bacterial Biotransformation” value is “Compound metabolized”.
Same read-out and setting: the same measure for `CC(Oc1c(Cl)cccc1Cl)C1=NCCN1` (configuration not stated) [LOFEXIDINE]: “Compound metabolized”; for `O=P1(N(CCCl)CCCl)NCCCO1` (configuration not stated) [CYCLOPHOSPHAMIDE ANHYDROUS]: “Compound NOT metabolized”.

For a further data set the following is noted: bacteroides stercoris, 12 h, 2 µM.
Description: The drug is tested on Bacteroides stercoris strain: ATCC43183 for biotransformation. The drug concentrations were measured before and after a 12-h incubation by liquid-chromatography-coupled mass spectrometry (LC–MS)
`CN(C)CCC=C1c2ccccc2C=Cc2ccccc21` [CYCLOBENZAPRINE]: the “Bacterial Biotransformation” value is “Compound NOT metabolized”.
Still for that read-out and setting: the same measure for `Clc1cccc(Cl)c1N=C1NCCN1` [CLONIDINE]: “Compound metabolized”.
`CN/C(=N/CCSCc1nc[nH]c1C)NC#N` [CIMETIDINE]: the “Bacterial Biotransformation” value is given as “Compound NOT metabolized”.
Same read-out and setting: the same measure for `COC(=O)[C@H](c1ccccc1Cl)N1CCc2sccc2C1.O=S(=O)(O)O` [CLOPIDOGREL BISULFATE]: “Compound metabolized”; for `CC(C)(Oc1ccc(CCNC(=O)c2ccc(Cl)cc2)cc1)C(=O)O` [BEZAFIBRATE]: “Compound metabolized”; for `CC(Oc1c(Cl)cccc1Cl)C1=NCCN1` (configuration not stated) [LOFEXIDINE]: “Compound metabolized”.
Same read-out and setting: the same measure for `O=P1(N(CCCl)CCCl)NCCCO1` (configuration not stated) [CYCLOPHOSPHAMIDE ANHYDROUS]: “Compound NOT metabolized”.
For `c1ccc([C@H]2CN3CCSC3=N2)cc1` [LEVAMISOLE], the “Bacterial Biotransformation” value is listed as “Compound metabolized”.

The next data set can be described thus: The drug is tested on Clostridium hathewayi strain: DSM13479 for biotransformation. The drug concentrations were measured before and after a 12-h incubation by liquid-chromatography-coupled mass spectrometry (LC–MS). The conditions noted are these: hungatella hathewayi, 2 µM.
As to `CN(C)CCC=C1c2ccccc2C=Cc2ccccc21` [CYCLOBENZAPRINE], the “Bacterial Biotransformation” value is “Compound NOT metabolized”.
Same read-out and setting: the same measure for `Clc1cccc(Cl)c1N=C1NCCN1` [CLONIDINE]: “Compound NOT metabolized”; for `CN/C(=N/CCSCc1nc[nH]c1C)NC#N` [CIMETIDINE]: “Compound NOT metabolized”.
Same read-out and setting: the same measure for `c1ccc([C@H]2CN3CCSC3=N2)cc1` [LEVAMISOLE]: “Compound NOT metabolized”.

A further data set can be described thus: The drug is tested on Bifidobacterium ruminantium strain: fecal isolate for biotransformation. The drug concentrations were measured before and after a 12-h incubation by liquid-chromatography-coupled mass spectrometry (LC–MS). The note with it: 2 µM.
Consider `CN(C)CCC=C1c2ccccc2C=Cc2ccccc21` [CYCLOBENZAPRINE], for which the “Bacterial Biotransformation” value is “Compound NOT metabolized”.
In the case of `Clc1cccc(Cl)c1N=C1NCCN1` [CLONIDINE], the “Bacterial Biotransformation” value is “Compound NOT metabolized”.
Turning to `CN/C(=N/CCSCc1nc[nH]c1C)NC#N` [CIMETIDINE], the “Bacterial Biotransformation” value is “Compound NOT metabolized”.
Same read-out and setting: the same measure for `CC(C)(Oc1ccc(CCNC(=O)c2ccc(Cl)cc2)cc1)C(=O)O` [BEZAFIBRATE]: “Compound metabolized”.
As for `CC(Oc1c(Cl)cccc1Cl)C1=NCCN1` (configuration not stated) [LOFEXIDINE], the “Bacterial Biotransformation” value is “Compound metabolized”.
`O=P1(N(CCCl)CCCl)NCCCO1` (configuration not stated) [CYCLOPHOSPHAMIDE ANHYDROUS]: the “Bacterial Biotransformation” value is reported as “Compound NOT metabolized”.
Turning to `CC(C)NCC(O)COc1ccc(CC(N)=O)cc1` (configuration not stated) [ATENOLOL], the “Bacterial Biotransformation” value is listed as “Compound NOT metabolized”.
Still for that read-out and setting: the same measure for `c1ccc([C@H]2CN3CCSC3=N2)cc1` [LEVAMISOLE]: “Compound NOT metabolized”.
